Data: US5342841A, “Xanthine derivatives” (Kyowa Hakko Kogyo Co., Ltd., priority 1992, dated 1994)

Experiments:
Adenosine A2 receptor = molecular target: T1, Adenosine A2 receptor (Rattus norvegicus, UniProt P30543); experiment: Adenosine A2 receptor binding test (3H-NECA); details: for Ki: 3H-NECA, CPA 50 nM, rat corpus striatum; for inhibition at 10 µM / inhibition at 100 µM: read-out: A2 Receptor Inhibition (%)
T1 construct: using rat corpus striatum to prepare the final precipitate; from tissue; host or cells: rat corpus striatum membranes
Procedure: The similar procedure as in 1) above was repeated using rat corpus striatum to prepare the final precipitate. The precipitate was suspended in 50 mM Tris HCl buffer containing 10 mM magnesium chloride and 0.02 unit/mg tissue of adenosine deaminase (manufactured by Sigma Co.) to give a tissue concentration of 5 mg (wet weight)/ml.
To 1 ml of the thus prepared tissue suspension were added 50 μl of a mixture of N-ethylcarboxamidoadenosine labeled with tritium [^3 H-NECA, 26 Ci/mmol, manufactured by Amersham Co.] […] (final concentration: 50 nM), and 50 μl of a test compound. The mixture was allowed to stand at 25° C. for 120 minutes and then treated in the same manner as in 1) above to determine the radioactivity.
The inhibition rate of the test compound against the binding of A2 receptor (^3 H-NECA binding) was calculated by the following equation: [formula]
2. "T" means the radioactivity of ^3 H-NECA bound in the absence of a test compound.
3. "N" means the radioactivity of ^3 H-NECA bound in the presence of 100 μM CPA.
The Ki value shown in the table was calculated by the following equation: [formula]
L: Concentration of ^3 H-NECA
Kd: Dissociation constant of ^3 H-NECA
Kc: Inhibition constant of CPA

Male Wistar rats = experiment: Diuretic activity (oral, saline-loaded rats); type: in vivo, rat; details: for Increase in K+ excretion / Increase in Na+ excretion / Increase in volume of Urine / Na+/K+: 6 hours; for Increase in K+ excretion / Increase in Na+ excretion / Increase in volume of Urine: relative to control; for Na+/K+: relative to control (1.00)
Procedure: Male Wistar rats weighing 150 to 300 g were fasted for 18 hours. A test compound and saline (25 ml/kg) were orally administered to the test rats and only saline was administered to the control rats. Then, urine was collected for 6 hours. The test was carried out using 3 groups of animals per test compound, each group consisting of 3 animals. The volume of the urine was measured by using a measuring cylinder and electrolytes (Na^+ and K^+) in the urine were assayed with a flame photometer (Model […] manufactured by Hitachi Ltd.). The parameters in Table 3 are all expressed by relative value to the control.

Adenosine A1 receptor = molecular target: T2, Adenosine A1 receptor (Cavia porcellus, UniProt P47745); experiment: Adenosine A1 receptor binding (3H-CHA); details: guinea pig cerebrum; for Ki: 3H-CHA, Cheng-Prusoff's equation; for inhibition at 100 µM: 10^-4 M test compound; for inhibition at 100 µM / inhibition at 10 µM: 3H-CHA 1.1 nM; for inhibition at 10 µM: 10^-5 M test compound
T2 construct: from tissue; host or cells: guinea pig cerebrum membranes
T2 sequence (P47745 1-326): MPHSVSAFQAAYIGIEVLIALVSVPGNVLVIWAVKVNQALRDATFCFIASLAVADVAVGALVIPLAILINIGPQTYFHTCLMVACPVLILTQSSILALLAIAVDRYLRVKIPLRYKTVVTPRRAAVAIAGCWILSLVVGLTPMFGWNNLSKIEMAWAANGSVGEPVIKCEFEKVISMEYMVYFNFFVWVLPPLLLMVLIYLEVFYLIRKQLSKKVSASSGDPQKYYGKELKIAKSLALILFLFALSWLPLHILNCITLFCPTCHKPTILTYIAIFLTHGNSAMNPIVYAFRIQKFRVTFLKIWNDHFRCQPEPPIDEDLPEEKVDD
Procedure: This test was conducted according to the method of Bruns et al. [Proc. Natl. Acad. Sci., 77, 5547 (1980)] with slight modification.
Cerebrum of a guinea pig was suspended in ice cooled 50 mM Tris hydroxymethyl aminomethane hydrochloride (Tris HCl) buffer (pH 7.7) by using Polytron homogenizer (manufactured by Kinematicas Co.). The suspension was centrifuged (50,000×g, 10 minutes), and the precipitate was suspended again in the same amount of 50 mM Tris HCl buffer. The suspension was centrifuged under the same conditions, and the precipitate obtained was suspended once again in 50 mM Tris HCl buffer to give a tissue concentration of 100 mg (wet weight)/ml. The tissue suspension was incubated at 37° C. for 30 minutes in the presence of 0.02 unit/mg tissue of adenosine deaminase (manufactured by Sigma Co.). The tissue suspension was then centrifuged (50,000×g, 10 minutes), and 50 mM Tris HCl buffer was added to the precipitate to adjust the concentration of tissue to 10 mg (wet weight)/ml.
To 1 ml of the thus prepared tissue suspension were added 50 μl of cyclohexyladenosine labeled with tritium [^3 H-CHA, 27 Ci/mmol, manufactured by New England Nuclear Co.] (final concentration: 1.1 nM) and 50 μl of a test compound. The mixture was allowed to stand at 25° C. for 90 minutes and then rapidly filtered by suction through a glass fiber filter (GF/C manufactured by Whatman Co.). The filter was immediately washed three times with 5 ml each of ice cold 50 mM Tris HCl buffer, and transferred to a vial, and a scintillator (EX-H by Wako Pure Chemical Industries, Ltd.) was added thereto. The radioactivity on the filter was determined with a scintillation counter (manufactured by Packard Instrument Co.).
The inhibition rate of the test compound against the binding of A1 receptor (^3 H-CHA binding) was calculated by the following equation: [formula]
2. "T" means the radioactivity of ^3 H-CHA bound in the absence of a test compound.
3. "N" means the radioactivity of ^3 H-CHA bound in the presence of 10 μM N^6 -(L-2-phenylisopropyl)adenosine (manufactured by Sigma Co.).
The inhibition constant (Ki value) shown in the table was calculated by the Cheng-Prusoff's equation.

[1] = test system: glycerol-induced renal insufficiency in male Wistar rats; experiment: Renal protecting activity (glycerol-induced renal insufficiency model), serum creatinine and urea nitrogen; type: in vivo, rat; details: i.p.; for Creatinine content in serum, test compound administered / Urea nitrogen content in serum, test compound administered: 24 hours after glycerol; for increases in creatinine content and urea nitrogen content of the serum (in words): Compound 1 at 0.1 mg/kg (p<0.001)
Procedure: Renal insufficiency is the condition that the homeostasis of body fluid is unable to be maintained by disorder of renal function. It is known that subcutaneous or intramuscular administration of glycerol to rat induces acute renal insufficiency characterized by renal tubular disturbance [Can. J. Physiol.
(§1) Male Wistar rats were fisted from both food and water for 18 hours. A test compound or saline (control) was intraperitoneally administered to the rats. After 30 minutes, the rats were anesthesized with ether and the back skin was picked up and 0.8 ml/100 g of 50% glycerol was subcutaneously administered. Twenty four hours after the glycerol injection, the rats were anesthesized with ether and 5 ml of the blood was collected from the descending aorta. After being allowed to stand for 30 minutes or longer, the blood sample was centrifuged at 3000 rpm for 10 minutes to obtain the serum. Creatinine in the serum sample was determined using autoanalyzer (AU510, Olympus Optical Co., Ltd.) or clinical analysis kit of creatinine (Creatinine Test Wako; by Wako Pure Chemical Ind., Japan). Urea nitrogen in the serum was determined using autoanalyzer (AU510; made by Olympus Optical Co., Ltd.) or clinical analysis kit of urea nitrogen (Urea Nitrogen Test Wako; by Wako Pure Chemical Ind., Japan).
Test of the significance between the control group and the test compound-administered group was performed by the Student's t-test (n=8 to 10).

[2] = test system: left kidneys of male Wistar rats with glycerol-induced renal insufficiency; experiment: Pathological examination of removed kidneys (glycerol-induced renal insufficiency model); type: in vivo, rat
Procedure: as §1
Further, the left kidneys were taken out from the animals of the test compound-treated groups and the control groups to prepare pathological samples.

[3] = 1 mg/kg, control 4.53 ± 0.19, *** P < 0.001, ** P < 0.01
[4] = 1 mg/kg, control 193.6 ± 6.4, *** P < 0.001, ** P < 0.01

T1 sequence (P30543 whole entry): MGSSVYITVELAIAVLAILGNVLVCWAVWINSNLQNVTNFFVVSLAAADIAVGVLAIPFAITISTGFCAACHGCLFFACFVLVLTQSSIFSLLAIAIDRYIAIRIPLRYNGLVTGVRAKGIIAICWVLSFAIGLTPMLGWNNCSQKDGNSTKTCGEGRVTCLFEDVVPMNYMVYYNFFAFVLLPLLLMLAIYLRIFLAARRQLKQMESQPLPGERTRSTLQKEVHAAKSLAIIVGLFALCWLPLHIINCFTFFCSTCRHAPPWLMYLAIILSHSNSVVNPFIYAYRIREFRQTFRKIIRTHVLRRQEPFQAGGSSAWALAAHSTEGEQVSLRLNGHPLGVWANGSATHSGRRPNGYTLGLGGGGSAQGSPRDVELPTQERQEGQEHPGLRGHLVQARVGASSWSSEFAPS

| SMILES | Ki (Adenosine A2 receptor) | inhibition at 10 µM (Adenosine A2 receptor) | inhibition at 100 µM (Adenosine A2 receptor) | Increase in K+ excretion (Male Wistar rats; 0.1 mg/kg) | Increase in Na+ excretion (Male Wistar rats; 0.1 mg/kg) | Increase in volume of Urine (Male Wistar rats; 0.1 mg/kg) | Na+/K+ (Male Wistar rats; 0.1 mg/kg) | Ki (Adenosine A1 receptor) | inhibition at 100 µM (Adenosine A1 receptor) | inhibition at 10 µM (Adenosine A1 receptor) | Creatinine content in serum, test compound administered [1, 3] | Urea nitrogen content in serum, test compound administered [1, 4] | increases in creatinine content and urea nitrogen content of the serum (in words) ([1]; conclusion from Table 4) | Increase in volume of Urine (Male Wistar rats; 25 mg/kg) | Na+/K+ (Male Wistar rats; 25 mg/kg) | Increase in K+ excretion (Male Wistar rats; 1.6 mg/kg) | Increase in Na+ excretion (Male Wistar rats; 1.6 mg/kg) | Increase in volume of Urine (Male Wistar rats; 1.6 mg/kg) | Na+/K+ (Male Wistar rats; 1.6 mg/kg) | further results |
| --- | --- | --- | --- | --- | --- | --- | --- | --- | --- | --- | --- | --- | --- | --- | --- | --- | --- | --- | --- | --- |
| O=c1c2[nH]c(C34CC5CC(CC3C5)C4)nc2n(CC2CC2)c(=O)n1CC1CC1 [Compound 1, 1,3-Bis(cyclopropylmethyl)-8-(3-noradamantyl)xanthine] | > 10000 nM | 49% | 70% | 9% | 146% | 184% | 2.25 | 1.9 nM | 101% | 99% | 2.23 ± 0.30 mg/dL | 97.2 ± 13.6 mg/dL | significantly suppressed | – | – | – | – | – | – | Na+ diuretic action (Male Wistar rats; conclusion in words from Table 3): potent; Creatinine content in serum, test compound administered ([1]; 0.1 mg/kg, control 4.53 ± 0.19, *** P < 0.001): 2.52 ± 0.24 mg/dL; Creatinine content in serum, test compound administered ([1]; 0.1 mg/kg, control 4.86 ± 0.12, *** P < 0.001): 1.97 ± 0.21 mg/dL; Urea nitrogen content in serum, test compound administered ([1]; 0.1 mg/kg, control 152.6 ± 4.1, *** P < 0.001): 61.3 ± 8.7 mg/dL; Urea nitrogen content in serum, test compound administered ([1]; 0.1 mg/kg, control 193.6 ± 6.4, *** P < 0.001): 109.4 ± 12.8 mg/dL; state of kidneys (pathological examination) [2]: significantly improved |
| Cn1c(=O)c2[nH]cnc2n(C)c1=O [Aminophylline, reference compound] | – | – | – | – | – | – | – | – | – | – | – | – | weak effect | 34% | 1.62 | – | – | – | – | Increase in K+ excretion (Male Wistar rats; 25 mg/kg): 17%; Increase in Na+ excretion (Male Wistar rats; 25 mg/kg): 89%; Creatinine content in serum, test compound administered ([1]; 10 mg/kg, control 5.43 ± 0.11, no significance mark): 5.32 ± 0.19 mg/dL; Urea nitrogen content in serum, test compound administered ([1]; 10 mg/kg, control 182.5 ± 3.4, no significance mark): 174.0 ± 10.4 mg/dL |
| O=c1c2[nH]c(C34CC5CC(CC3C5)C4)nc2n(C2CC2)c(=O)n1C1CC1 [Compound 3, 1,3-Dicyclopropyl-8-(3-noradamantyl)xanthine] | 1300 nM | 78% | 103% | 0% | 52% | 48% | 1.52 | 38 nM | 98% | 99% | – | – | – | – | – | 8% | 118% | 93% | 2.02 | – |
| NS(=O)(=O)c1cc(C(=O)O)c(NCc2ccco2)cc1Cl [Furosemide, reference compound] | – | – | – | – | – | – | – | – | – | – | – | – | – | 75% | 1.07 | – | – | – | – | Creatinine content in serum, test compound administered ([1]; 10 mg/kg, control 3.22 ± 0.35, no significance mark): 4.17 ± 0.41 mg/dL; Urea nitrogen content in serum, test compound administered ([1]; 10 mg/kg, control 110.7 ± 9.4, * P < 0.05): 150.3 ± 13.7 mg/dL; serum creatinine (in words) ([1]; conclusion from Table 4): tendency to increase the serum creatinine |
| O=c1c2[nH]c(C(C3CC3)C3CC3)nc2n(C2CC2)c(=O)n1C1CC1 [Compound 4, 1,3-Dicyclopropyl-8-dicyclopropylmethylxanthine] | 2400 nM | 104% | 108% | – | – | – | – | 42 nM | 99% | 99% | 2.55 ± 0.43 mg/dL | 108.5 ± 16.8 mg/dL | – | – | – | 18% | 54% | 54% | 1.31 | – |
| O=c1c2[nH]c(C(C3CC3)C3CC3)nc2n(CC2CC2)c(=O)n1CC1CC1 [Compound 2, 1,3-Bis(cyclopropylmethyl)-8-dicyclopropylmethylxanthine] | 210 nM | 93% | 100% | – | – | – | – | 2.7 nM | 101% | 100% | – | – | – | – | – | 4% | 49% | 43% | 1.44 | – |
